# B1: DNMT1: shRNA knocking down DNMT1; Open Biosystems V2MM_46797 or synthesized shRNA SEQ ID NO: 5 (nucleic acid)
# chain: TGCTGTTGACAGTGAGCGCGCCCATCCTCAGGGACCATATTAGTGAAGCCACAGATGTAATATGGTCCCTGAGGATGGGCTTGCCTACTGCCTCGGA
# How the values were obtained:
# Assay type in all cases: cell-based, mouse
# [1] = tested on: Fas; assay: Immunoblot analysis of Fas re-expression in K-ras NIH 3T3 cells; conditions: 10 μM 5-aza for 72 h
# Description: (§1) Cell culture. NIH 3T3 (ATCC# CRL-1658) and K:Molv NIH 3T3 (ATCC# CRL-6361; referred to here as K-ras NIH 3T3) cells were maintained in DMEM supplemented with 10% FCS at 37° C. and 5% CO2. For 5-aza-2′-deoxycytidine (5-aza) treatment, K-ras NIH 3T3 cells were treated with 10 μM 5-aza for 72 h.
# Immunoblot analysis. To prepare cell extracts, K-ras NIH 3T3 knockdown cell lines were harvested 7 days following retroviral transduction and puromycin selection (1.5 μg ml^−1) and lysed by boiling in 1× SDS sample buffer (Laemmli buffer) for 5 min. Proteins were resolved by 12% SDS-PAGE. Immunoblot analysis was performed using an anti-Fas (sc-716; Santa Cruz) or anti-p21 Ras (ab16795; Abcam) antibody to monitor expression of K-Ras (as a loading control), and an appropriate HRP-conjugated secondary antibody. Proteins were visualized using SuperSignal West Pico Luminol/Enhancer Solution (Pierce).
# [2] = tested on: Sfrp1, Par4/Pawr, Plagl1, H2-K1 and Lox; assay: qRT-PCR expression of other epigenetically silenced genes in K-ras NIH 3T3 cells; conditions: 10 μM 5-aza for 72 h
# Description: as §1
# (§2) Chromatin immunoprecipitation (ChIP) and methylated DNA immunoprecipitation (MeDIP). ChIP assays were performed using extracts prepared 7 days following retroviral transduction and puromycin selection. […] MeDIP and ChIP products were visualized by autoradiography, or analyzed by quantitative real-time PCR using Platinum SYBR Green qPCR SuperMix-UDG with Rox (Invitrogen). […] Quantitative real time RT-PCR. […] Reverse transcription was performed using SuperScript II Reverse Transcriptase (Invitrogen) as per the manufacturer's instructions, followed by quantitative real-time PCR as described above. […] Tumour dimensions were measured every 3 days from the time of appearance of the tumours, and tumour volume was calculated using the formula π/6×(length)×(width)^2. […]
# [3] = tested on: Fas promoter; assay: Methylated DNA immunoprecipitation (MeDIP) of the Fas promoter; conditions: K-ras NIH 3T3 cells, 10 μM 5-aza for 72 h
# Source text: To facilitate analysis of the methylation status of these three regions in the 28 K-ras NIH 3T3 KD cell lines we established and validated a rapid methylated DNA immunoprecipitation (MeDIP) assay, in which the antibody is directed against 5-methyl-cytosine (Weber, M. et al., Nat. Genet. 37, 853-862 (2005)). […] We then assessed the three hypermethylated Fas promoter regions in each of the 28 K-ras NIH 3T3 KD cell lines.
# as §2
# [4] = tested on: Fas promoter; assay: Bisulphite sequencing of the Fas promoter; conditions: shRNA knockdown
# Description: Bisulphite sequencing. Bisulphite modification was carried out essentially as described (Frommer, M. et al., Proc. Natl. Acad. Sci. USA 89, 1827-1831 (1992)) except that hydroquinone was used at a concentration of 125 mM during bisulphite treatment carried out in the dark and DNA was desalted on Qiaquick columns (Qiagen) after the bisulphite reaction. The regions analyzed were amplified by nested PCR. The first round comprised 24 cycles at 94° C. for 1 min, 48° C. for 1 min 30 s, and 72° C. for 1 min. One-tenth of the product was used as substrate for the second round of PCR comprising 28 cycles at 94° C. for 1 min, 48° C. for 1 min 30 s, 72° C. for 1 min.
Molecule,Fas expression [1],"expression of Sfrp1, Par4/Pawr, Plagl1, H2-K1 and Lox (all five genes) [2]",hypermethylation of Fas promoter TSS/DS region (MeDIP) [3],hypermethylation of three Fas promoter regions (bisulphite sequencing) ([4]; H-ras transformed C3H10T1/2 cells),hypermethylation of TSS/DS region of the Fas promoter (bisulphite sequence analysis) ([4]; K-ras NIH 3T3 cells)
"Nc1ncn([C@H]2C[C@H](O)[C@@H](CO)O2)c(=O)n1 [5-aza, 5-aza-2′-deoxycytidine]",restored Fas expression,re-expressed,not hypermethylated,–,–
B1,–,–,–,not,no longer hypermethylated
